# Assay results as given in US20260048021A1, “NEUTRAL LIPID AND LIPID NANOPARTICLE” (National University Corporation Hokkaido University, priority 2022, published 2026).
# What was measured:
# factor VII (F7) = settings: mouse liver; cited from earlier work
# [1] = Evaluation of lipid polymorphism by 31P NMR spectroscopy; type: physicochemical; settings: DOPC/lipid=50/50 (mol %), hydrated with PBS(−), 25° C.
# Protocol: The spectrum of a lipid membrane by ^31P NMR spectroscopy differs depending on the phase. Therefore, analysis of a lipid membrane composed of DOPC and a lipid under evaluation was performed by ^31P NMR spectroscopy, the polymorphism of the phase state of the lipid membrane was evaluated from the obtained spectrum, and the ability of the lipid under evaluation to destroy the DOPC membrane was evaluated.
# Specifically, DOPC and a lipid under evaluation (DOPE or TOT-10) were mixed at a molar ratio of 1:1 (16 μmol of total lipid) and were dissolved in 300 μL of chloroform, and then the solvent was removed by a distillation apparatus (rotovap) to form a lipid membrane. The resulting lipid membrane was hydrated with 500 μL of PBS(−) at 60° C. to obtain a sample for measurement.
# Next, the sample was transferred to an NMR tube, and a proton-decoupled ^31P NMR spectrum was obtained using an ECA500 apparatus manufactured by JEOL Ltd. Acquisition parameters included a […], a spectral width of 280 kHz (for ECX 400P) with 32,768 data points, and an interpulse delay time of 1 second. The temperature was controlled at 25° C. Prior to Fourier transform, exponential multiplication corresponding to a line broadening of 50 Hz was applied to the free induction decay. Chemical shifts were referenced to 85% phosphoric acid (H3PO4) as an external standard. […]
smiles,measurement,setting,value
CCCCC/C=C\C/C=C\CCCCCCCCC(CCCCCCCC/C=C\C/C=C\CCCCC)OC(=O)CCCN(C)C [DLin-MC3-DMA],ED50 in factor VII (F7) knockdown,factor VII (F7),0.005 mg siRNA/kg
"CCCCCCCC/C=C\CCCCCCCC(=O)OC[C@H](COP(=O)(O)OCCN)OC(=O)CCCCCCC/C=C\CCCCCCCC [DOPE, 1,2-dioleoyl-sn-glycero-3-phosphoethanolamine]",phase of lipid membrane seen in 31P NMR spectrum,[1],a peak derived from the lamellar phase was observed
"CCCCCCCC/C=C\CCCCCCCC(=O)OCC(COC(=O)CCCCCCC/C=C\CCCCCCCC)(COC(=O)CCCCCCC/C=C\CCCCCCCC)NC(=O)CCC[N+](C)(C)CC(=O)[O-] [TOT-10, 2-((4-((1,3-bis(oleoyloxy)-2-((oleoyloxy)methyl)propan-2-yl)amino)-4-oxobutyl)dimethylammonio)acetate]",phase of lipid membrane seen in 31P NMR spectrum,[1],a peak derived from the hexagonal phase or isotropic phase was observed instead of a peak derived from the lamellar phase
CCCCC/C=C\C/C=C\CCCCCCCCOC1(OCCCCCCCC/C=C\C/C=C\CCCCC)CCN(C)CC1 [YSK05],ED50 in factor VII (F7) knockdown,factor VII (F7),0.06 mg siRNA/kg
